ChEMBL document CHEMBL1201862, “PubChem BioAssay data set” (2004)
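1) Cells in 96-well plates. 2) Compound, 48 h, 5 concentrations. 3) Linear interpolation between surrounding doses. 4) Unreached endpoint = highest concentration. Abbreviation: GI50, concentration required for 50% inhibition of growth.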 Active and inactive are the calls of the source. Cut-off read from the data, not from the text of the source: active = GI50 up to about 1.1 µM and inactive = higher.

Key:
Assay in all cases: inhibition of tumour cell growth, NCI panel, 48 h
NCI-H23 = test system: NCI-H23
MDA-MB-435 = test system: MDA-MB-435
SNB-19 = test system: SNB-19
RXF 393 = test system: RXF 393
OVCAR-4 = test system: OVCAR-4
PC-3 = test system: PC-3
KM12 = test system: KM12
MDA-N = test system: MDA-N
Malme-3M = test system: Malme-3M
HCT-15 = test system: HCT-15
NCI-H226 = test system: NCI-H226
U-251 = test system: U-251
UACC-257 = test system: UACC-257
OVCAR-3 = test system: OVCAR-3
MOLT-4 = test system: MOLT-4
NCI-H460 = test system: NCI-H460
Hs-578T = test system: Hs-578T
LOX IMVI = test system: LOX IMVI
SK-OV-3 = test system: SK-OV-3
OVCAR-8 = test system: OVCAR-8

Row | SMILES | GI50 (NCI-H23) | GI50 (MDA-MB-435) | GI50 (SNB-19) | GI50 (RXF 393) | GI50 (OVCAR-4) | GI50 (PC-3) | GI50 (KM12) | GI50 (MDA-N) | GI50 (Malme-3M) | GI50 (HCT-15) | GI50 (NCI-H226) | GI50 (U-251) | GI50 (UACC-257) | GI50 (OVCAR-3) | GI50 (MOLT-4) | GI50 (NCI-H460) | GI50 (Hs-578T) | GI50 (LOX IMVI) | GI50 (SK-OV-3) | GI50 (OVCAR-8)
1 | CCc1c[n+]2c(cc1C1=CN3c4ccccc4[C@]45CCN6C/C(=C/CO)[C@H](C[C@H]64)[C@@H]([C@@H]1O)[C@H]35)-c1[nH]c3ccccc3c1CC2 | > 50 µM (inactive) | > 50 µM (inactive) | > 50 µM (inactive) | > 50 µM (inactive) | > 50 µM (inactive) | > 50 µM (inactive) | > 50 µM (inactive) | > 50 µM (inactive) | > 50 µM (inactive) | > 50 µM | > 50 µM (inactive) | > 50 µM (inactive) | > 50 µM (inactive) | > 50 µM (inactive) | > 50 µM (inactive) | > 50 µM (inactive) | > 50 µM (inactive) | > 50 µM (inactive) | > 50 µM (inactive) | > 50 µM (inactive)
2 | CNc1nc2n(CCO)c(-c3ccccc3)c(-c3ccccc3)nc-2c(=O)n1 | > 50 µM (inactive) | > 50 µM (inactive) | > 50 µM (inactive) | > 50 µM (inactive) | > 50 µM (inactive) | > 50 µM (inactive) | > 50 µM (inactive) | > 50 µM (inactive) | > 50 µM (inactive) | > 50 µM | > 50 µM (inactive) | > 50 µM (inactive) | > 50 µM (inactive) | 14.8 µM (inactive) | > 50 µM (inactive) | > 50 µM (inactive) | > 50 µM (inactive) | > 50 µM (inactive) | > 50 µM (inactive) | > 50 µM (inactive)
3 | COP(C)(=O)C(Cc1c[nH]c2ccccc12)NC(=O)OCc1ccccc1 (stereo not given) | > 100 µM (inactive) | > 100 µM (inactive) | > 100 µM (inactive) | > 100 µM (inactive) | > 100 µM (inactive) | > 100 µM (inactive) | > 100 µM (inactive) | > 100 µM (inactive) | > 100 µM (inactive) | > 100 µM | > 100 µM (inactive) | > 100 µM (inactive) | > 100 µM (inactive) | > 100 µM (inactive) | > 100 µM (inactive) | > 100 µM (inactive) | > 100 µM (inactive) | > 100 µM (inactive) | > 100 µM (inactive) | > 100 µM (inactive)
4 | C/N=C/N(C)c1c2ccccc2nc2ccccc12 | > 100 µM (inactive) | > 100 µM (inactive) | > 100 µM (inactive) | > 100 µM (inactive) | > 100 µM (inactive) | > 100 µM (inactive) | > 100 µM (inactive) | > 100 µM (inactive) | > 100 µM (inactive) | > 100 µM | > 100 µM (inactive) | > 100 µM (inactive) | > 100 µM (inactive) | > 100 µM (inactive) | > 100 µM (inactive) | > 100 µM (inactive) | > 100 µM (inactive) | > 100 µM (inactive) | > 100 µM (inactive) | > 100 µM (inactive)
5 | COC1/C=C/OC2(C)Oc3c(C)c(O)c4c(c3C2=O)C(=O)C=C(NC(=O)/C(C)=C\C=C\C(C)C(OC=O)C(C)C(O)C(C)C(OC(C)=O)C1C)C4=O (stereo not given) | 14.4 µM (inactive) | 16 µM (inactive) | 14.5 µM (inactive) | 7.67 µM (inactive) | 7.4 µM (inactive) | 10.3 µM (inactive) | 26.8 µM (inactive) | 15.8 µM (inactive) | 13.4 µM (inactive) | 8.61 µM | 13.6 µM (inactive) | 20.6 µM (inactive) | 11.4 µM (inactive) | 3.76 µM (inactive) | 3.01 µM (inactive) | 21.1 µM (inactive) | 15.2 µM (inactive) | 7.5 µM (inactive) | 28.7 µM (inactive) | 15.3 µM (inactive)
